The source of these data is patent publication US20120202794A1 (priority 2011, published 2012).

One series has as its system HCV Replicon 1b. Kind of series: HCV inhibition assay, HCV replicon 1b (Clone A or ET-lunet cells; RT-PCR or luciferase reporter). It is filed as cell-based. The note with it: Hepatitis C virus, 96 h, HCV replicon 1b; 4 days incubation; read-out: Replicon 1b potency EC90. In a few lines: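 Inhibition read either as luciferase signal (ET replicon) or as HCV 5′-NTR RNA by RT-PCR relative to rRNA, % = (1−2^−ΔΔCt)×100, against DMSO controls, giving EC50 and EC90. Cells: Clone A or ET-lunet, seeded 1500 or 3000/well, exposed 4 days at 37 °C, 5% CO2, 0.5% DMSO.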

A short description of series [1]: Cell cytotoxicity assay (MTS), CC90 as reported in Table 1, cell line not stated. It is filed as cell-based. The note with it: human; MTS assay; 8 days incubation; cell line not given. The procedure, abridged: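 MTS read-out (490 nm, 2 h dye step) after 8-day exposure at 37° C. Huh7, HepG2, BxPC3 were seeded at 2×10^3 and CEM at 5×10^3 cells/well, with compound serially diluted from 100 μM. CC90 comes from comparison with untreated control wells.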
(Tetrazolium assays rely on reduction of a dye to a coloured formazan, in cell work by metabolically active cells.)

As usually defined, the EC90 is the concentration needed for an effect of 90%. As to `CCC[C@H]1CN(C(=O)c2noc(-c3ccc(F)cc3)n2)[C@@H](CC(C)C)C(=O)N1` [Compound 290, (3S,6S)-4-(5-(4-fluorophenyl)-1,2,4-oxadiazole-3-carbonyl)-3-isobutyl-6-propylpiperazin-2-one], the EC90 with HCV Replicon 1b stood at 140 nM. In series [1], the CC90 at 8 days is greater than 10000 nM.
On the same counts, the results for `CC(C)C[C@H]1C(=O)N[C@@H](C2CCCCC2)CN1C(=O)c1noc(-c2ccc(F)cc2)n1` [Compound 291, (3S,6S)-6-cyclohexyl-4-(5-(4-fluorophenyl)-1,2,4-oxadiazole-3-carbonyl)-3-isobutylpiperazin-2-one] are 330 nM and greater than 10000 nM.
On the same counts, the results for `CC(C)C[C@H]1CN(C(=O)c2noc(-c3ccc(F)cc3)n2)[C@@H](CC(C)C)C(=O)N1` [Compound 293, (3S,6S)-4-(5-(4-Fluorophenyl)-1,2,4-oxadiazole-3-carbonyl)-3,6-diisobutylpiperazin-2-one] are 270 nM and greater than 10000 nM.
On the same counts, the results for `CC(C)C[C@H]1C(=O)N[C@@H](C2CCCC2)CN1C(=O)c1noc(-c2ccc(F)cc2)n1` [Compound 294, (3S,6S)-6-Cyclopentyl-4-(5-(4-fluorophenyl)-1,2,4-oxadiazole-3-carbonyl)-3-isobutylpiperazin-2-one] are 350 nM and greater than 10000 nM.
In the case of `CC(C)C[C@H]1C(=O)N[C@@H](C(C)C)CN1C(=O)c1noc(-c2ccc(F)cc2)n1` [Compound 295, (3S,6S)-4-(5-(4-Fluorophenyl)-1,2,4-oxadiazole-3-carbonyl)-3-isobutyl-6-isopropylpiperazin-2-one], the EC90 in the series on HCV Replicon 1b stood at 320 nM. The CC90 at 8 days in series [1] was greater than 10000 nM.
On the same counts, the results for `CSC[C@H]1CN(C(=O)c2noc(-c3ccc(F)cc3)n2)[C@@H](CC(C)C)C(=O)N1` [Compound 296, (3S,6R)-4-(5-(4-Fluorophenyl)-1,2,4-oxadiazole-3-carbonyl)-3-isobutyl-6-((methylthio)methyl)piperazin-2-one] are 1540 nM and greater than 10000 nM.
On the same counts, the results for `CC(C)C[C@H]1C(=O)N[C@@H](CC2CC2)CN1C(=O)[C@@H]1C[C@H]1c1ccc(F)cc1` [Compound 297, (3S,6S)-4-[(1R,2R)-2-(4-Fluoro-phenyl)-cyclopropanecarbonyl]-6-cyclopropyl-methyl-3-isobutyl-piperazin-2-one] are 410 nM and greater than 10000 nM.
On the same counts, the results for `CSC[C@H]1CN(C(=O)[C@@H]2C[C@H]2c2ccc(F)cc2)[C@@H](CC(C)C)C(=O)N1` [Compound 299, (3S,6R)-4-((1R,2R)-2-(4-fluorophenyl)cyclopropanecarbonyl)-3-isobutyl-6-((methylthio)methyl)piperazin-2-one] are 630 nM and greater than 10000 nM.
As for `CSC[C@H]1CN(C(=O)[C@@H]2C[C@H]2c2ccc(Cl)cc2)[C@@H](CC(C)C)C(=O)N1` [Compound 300, (3S,6R)-4-((1R,2R)-2-(4-Chlorophenyl)cyclopropanecarbonyl)-3-isobutyl-6-((methylthio)methyl)piperazin-2-one], the EC90 in the series on HCV Replicon 1b amounted to 780 nM. For the same molecule, in series [1], the CC90 at 8 days is greater than 10000 nM.
Take `CC(C)C[C@H]1CN(C(=O)c2noc3c2CCc2cc(F)ccc2-3)[C@@H](CC(C)C)C(=O)N1` [Compound 302, (3S,6S)-3,6-Diisobutyl-4-(7-fluoro-4,5-dihydronaphtho[2,1-d]isoxazole-3-carbonyl)piperazin-2-one]: the EC90 with HCV Replicon 1b came to 1410 nM. The molecule further showed a CC90 at 8 days in series [1] greater than 10000 nM.
On the same counts, the results for `CCC[C@H]1CN(C(=O)c2noc3c2CCc2cc(F)ccc2-3)[C@@H](CC(C)C)C(=O)N1` [Compound 304, (3S,6S)-4-(7-fluoro-4,5-dihydronaphtho[2,1-d]isoxazole-3-carbonyl)-3-isobutyl-6-propylpiperazin-2-one] are 640 nM and greater than 10000 nM.
